One block for each compound: values may come before it.
Key:
[1] = Serum stability of 99mTc complex of (1); type: in vitro ADME; conditions: first hour at 37° C., read-out: technetium lost from the chelator in serum
Procedure: A typical method of radiolabelling of the chelator was achieved by dissolving the chelator in a basic solution of saline. The pH was then adjusted to approx. 6 with HCl. Excess stannous chloride was added to the resultant solution followed by one equivalent volume of sodium ^99m TcO4 (10-50 mCi/ml). Final concentration of the chelator was approx. 1 mg/ml. The efficacy of labelling was determined by ITLC-SG. For each product only one main radiochemical species was observed. Each complex was diluted to 15 μCi/100 μl with saline. […] (See FIGS. 1A and 1B).

[2] = Serum stability of 166Dy/166Ho complex of (1); type: in vitro ADME; conditions: human serum, 37° C.
Procedure: The radiolabelling (1) is then incubated in human serum at 37° C. At various time intervals the aliquots are separated and monitored for UV absorbance and radioactivity. The data illustrated in FIG. 31 show the complex is stable for >46 hrs.

[3] = Serum stability of Copper-67 complexes; type: in vitro ADME
Procedure: The serum stability was determined for selected derivatives and typical procedure is as follows.
The ligand (1) was labelled with Cu-67 at a ligand:metal ratio of 4:1.

[4] = Biodistribution of Copper-67 complex of (5); type: in vivo, Balb/c mice; conditions: for biodistribution L. Int. / biodistribution S. Int. / biodistribution blood / biodistribution bone / biodistribution brain / biodistribution heart / biodistribution kidney / biodistribution liver / biodistribution lung / biodistribution muscle / biodistribution pancreas / biodistribution skin / biodistribution spleen / biodistribution stomach / biodistribution tail / biodistribution urine: 67Cu, mice
Procedure: A typical procedure involved the dissolving Cu-67 20 μl of original stock in an acetate buffer (0.2 M; pH 4.5) to a total volume of 500 μl. To this solution was added 500 μl of the ligand (20 mg/ml) solution in acetate buffer. The mixture was then left to react at 37° C. for 20 minutes. ITLC confirmed the labelling was greater than >95%.
The biodistribution of the copper-67 complex of ligand (5) was evaluated in balb/c mice (5 animals per time point) at 1, 3, 5, 10, 30 minute time intervals.

[5] = Cu-67, over the 30 minute period

degraded at 1 h [1]: ≤ 15%
serum stability (complex is stable for) [2]: > 46 h
further loss in serum ([3]; Cu-67, after 24 hours): no further loss
degraded at 4 h ([3]; serum, Cu-67, initial 4 hours, read-out: loss in serum): 4%
Compound: O=C(O)CN(CCN(CC(=O)O)CC(=O)Nc1ccccc1O)CC(=O)Nc1ccccc1O [Compound 1]

biodistribution L. Int. ([4]; 1 min): 0.35 % Injected dose
biodistribution S. Int. ([4]; 1 min): 0.50 % Injected dose
biodistribution blood ([4]; 1 min): 5.86 % Injected dose
biodistribution bone ([4]; 1 min): 5.46 % Injected dose
biodistribution brain ([4]; 1 min): 0.23 % Injected dose
biodistribution heart ([4]; 1 min): 0.27 % Injected dose
biodistribution kidney ([4]; 1 min): 8.35 % Injected dose
biodistribution liver ([4]; 1 min): 5.71 % Injected dose
biodistribution lung ([4]; 1 min): 0.85 % Injected dose
biodistribution muscle ([4]; 1 min): 13.69 % Injected dose
biodistribution pancreas ([4]; 1 min): 0.20 % Injected dose
biodistribution skin ([4]; 1 min): 9.61 % Injected dose
biodistribution spleen ([4]; 1 min): 0.18 % Injected dose
biodistribution stomach ([4]; 1 min): 0.52 % Injected dose
biodistribution tail ([4]; 1 min): 8.27 % Injected dose
biodistribution urine ([4]; 1 min): 0.35 % Injected dose
biodistribution L. Int. ([4]; 3 min): 0.75 % Injected dose
biodistribution S. Int. ([4]; 3 min): 1.10 % Injected dose
biodistribution blood ([4]; 3 min): 4.76 % Injected dose
biodistribution bone ([4]; 3 min): 3.35 % Injected dose
biodistribution brain ([4]; 3 min): 0.22 % Injected dose
biodistribution heart ([4]; 3 min): 0.28 % Injected dose
biodistribution kidney ([4]; 3 min): 5.65 % Injected dose
biodistribution liver ([4]; 3 min): 8.48 % Injected dose
biodistribution lung ([4]; 3 min): 1.20 % Injected dose
biodistribution muscle ([4]; 3 min): 18.00 % Injected dose
biodistribution pancreas ([4]; 3 min): 0.11 % Injected dose
biodistribution skin ([4]; 3 min): 19.21 % Injected dose
biodistribution spleen ([4]; 3 min): 0.19 % Injected dose
biodistribution stomach ([4]; 3 min): 0.93 % Injected dose
biodistribution tail ([4]; 3 min): 5.19 % Injected dose
biodistribution urine ([4]; 3 min): 1.98 % Injected dose
biodistribution L. Int. ([4]; 5 min): 0.54 % Injected dose
biodistribution S. Int. ([4]; 5 min): 1.08 % Injected dose
biodistribution blood ([4]; 5 min): 4.05 % Injected dose
biodistribution bone ([4]; 5 min): 2.74 % Injected dose
biodistribution brain ([4]; 5 min): 0.23 % Injected dose
biodistribution heart ([4]; 5 min): 0.19 % Injected dose
biodistribution kidney ([4]; 5 min): 4.99 % Injected dose
biodistribution liver ([4]; 5 min): 9.04 % Injected dose
biodistribution lung ([4]; 5 min): 1.10 % Injected dose
biodistribution muscle ([4]; 5 min): 11.95 % Injected dose
biodistribution pancreas ([4]; 5 min): 0.12 % Injected dose
biodistribution skin ([4]; 5 min): 16.23 % Injected dose
biodistribution spleen ([4]; 5 min): 0.16 % Injected dose
biodistribution stomach ([4]; 5 min): 0.87 % Injected dose
biodistribution tail ([4]; 5 min): 5.36 % Injected dose
biodistribution urine ([4]; 5 min): 3.72 % Injected dose
biodistribution L. Int. ([4]; 10 min): 0.79 % Injected dose
biodistribution S. Int. ([4]; 10 min): 0.90 % Injected dose
biodistribution blood ([4]; 10 min): 2.33 % Injected dose
biodistribution brain ([4]; 10 min): 0.19 % Injected dose
biodistribution heart ([4]; 10 min): 0.18 % Injected dose
biodistribution kidney ([4]; 10 min): 4.48 % Injected dose
biodistribution liver ([4]; 10 min): 11.79 % Injected dose
biodistribution lung ([4]; 10 min): 1.20 % Injected dose
biodistribution muscle ([4]; 10 min): 8.38 % Injected dose
biodistribution pancreas ([4]; 10 min): 0.34 % Injected dose
biodistribution skin ([4]; 10 min): 16.46 % Injected dose
biodistribution spleen ([4]; 10 min): 0.16 % Injected dose
biodistribution stomach ([4]; 10 min): 0.80 % Injected dose
biodistribution tail ([4]; 10 min): 3.45 % Injected dose
biodistribution urine ([4]; 10 min): 4.71 % Injected dose
biodistribution L. Int. ([4]; 30 min): 0.31 % Injected dose
biodistribution S. Int. ([4]; 30 min): 0.71 % Injected dose
biodistribution blood ([4]; 30 min): 2.12 % Injected dose
biodistribution bone ([4]; 30 min): 2.05 % Injected dose
biodistribution brain ([4]; 30 min): 0.54 % Injected dose
biodistribution heart ([4]; 30 min): 0.20 % Injected dose
biodistribution kidney ([4]; 30 min): 3.38 % Injected dose
biodistribution liver ([4]; 30 min): 17.10 % Injected dose
biodistribution lung ([4]; 30 min): 1.29 % Injected dose
biodistribution muscle ([4]; 30 min): 7.45 % Injected dose
biodistribution pancreas ([4]; 30 min): 0.34 % Injected dose
biodistribution skin ([4]; 30 min): 14.14 % Injected dose
biodistribution spleen ([4]; 30 min): 0.19 % Injected dose
biodistribution stomach ([4]; 30 min): 1.22 % Injected dose
biodistribution tail ([4]; 30 min): 1.51 % Injected dose
biodistribution urine ([4]; 30 min): 1.33 % Injected dose
Compound: Nc1ccc(O)c(NC(=O)CN(CCN(CC(=O)O)CC(=O)Nc2cc(N)ccc2O)CC(=O)O)c1 [Compound 5]
clearance from the kidneys, blood and urine [4, 5]: clears from the kidneys, blood and urine over the 30 minute period
uptake in the liver [4, 5]: active uptake of the complex in the liver

Source: patent publication US5807535A, “Metal complexes of hydroxyaryl containing aminocarboxylic acid chelating agents” (Australian Nuclear Science & Technology Organisation, priority 1992, dated 1998)
